Tested on: MV-4-11 cells
Experiment: Gene expression microarray analysis (Affymetrix PrimeView) and GSEA
Type: cell-based, human
Design: RFU PODN (11730768_x_at) / Fold change /veh PODN (11730768_x_at) / RFU LINC00158 (11744669_a_at) / Fold change /veh LINC00158 (11744669_a_at) / RFU DUSP10 (11751237_a_at) / Fold change /veh DUSP10 (11751237_a_at) / RFU ID3 (11757404_x_at) / Fold change /veh ID3 (11757404_x_at) / RFU PLEKHG5 (11737974_s_at) / Fold change /veh PLEKHG5 (11737974_s_at) / RFU LRRC4B (11730491_at) / Fold change /veh LRRC4B (11730491_at) / RFU GIMAP4 (11747438_a_at) / Fold change /veh GIMAP4 (11747438_a_at) / RFU KRT8 (11758183_x_at) / Fold change /veh KRT8 (11758183_x_at) / RFU CNN1 (11734310_a_at) / Fold change /veh CNN1 (11734310_a_at) / RFU VPS37D (11726825_at) / Fold change /veh VPS37D (11726825_at) / RFU C10orf10 (11716522_x_at) / Fold change /veh C10orf10 (11716522_x_at) / RFU KIR2DL2 /// KIR2DL4 /// KIR2DL5A /// KIR2DL5B /// KIR2DS1 /// KIR2DS2 /// KIR2DS3 /// KIR2DS4 /// KIR3DL3 /// KIR3DL3 /// KIR3DS1 (11738374_at) / Fold change /veh KIR2DL2 /// KIR2DL4 /// KIR2DL5A /// KIR2DL5B /// KIR2DS1 /// KIR2DS2 /// KIR2DS3 /// KIR2DS4 /// KIR3DL3 /// KIR3DL3 /// KIR3DS1 (11738374_at) / RFU C1QL1 (11718748_at) / Fold change /veh C1QL1 (11718748_at) / RFU TMPRSS4 (11747572_a_at) / Fold change /veh TMPRSS4 (11747572_a_at) / RFU HAMP (11756126_x_at) / Fold change /veh HAMP (11756126_x_at) / RFU RNFT2 (11725882_a_at) / Fold change /veh RNFT2 (11725882_a_at) / RFU NR4A2 (11747474_a_at) / Fold change /veh NR4A2 (11747474_a_at) / RFU ABCC12 (11746883_a_at) / Fold change /veh ABCC12 (11746883_a_at) / RFU TMEM136 (11760407_x_at) / Fold change /veh TMEM136 (11760407_x_at) / RFU CLDN22 /// WWC2 (11732394_at) / Fold change /veh CLDN22 /// WWC2 (11732394_at) / RFU HLA-DPB1 (11760878_x_at) / Fold change /veh HLA-DPB1 (11760878_x_at) / RFU SPINT1 (11716480_a_at) / Fold change /veh SPINT1 (11716480_a_at) / RFU GAP43 (11754022_s_at) / Fold change /veh GAP43 (11754022_s_at) / RFU A4GNT (11735810_at) / Fold change /veh A4GNT (11735810_at) / RFU PRB3 (11715151_x_at) / Fold change /veh PRB3 (11715151_x_at) / RFU TUBB4B (11761932_at) / Fold change /veh TUBB4B (11761932_at) / RFU CAPN14 (11732068_a_at) / Fold change /veh CAPN14 (11732068_a_at) / RFU TMCC2 (11721928_a_at) / Fold change /veh TMCC2 (11721928_a_at) / RFU IRGQ (11745062_a_at) / Fold change /veh IRGQ (11745062_a_at) / RFU FAM174B (11720279_a_at) / Fold change /veh FAM174B (11720279_a_at) / RFU TMPRSS4 (11748680_a_at) / Fold change /veh TMPRSS4 (11748680_a_at) / RFU FAM212B (11763350_a_at) / Fold change /veh FAM212B (11763350_a_at) / RFU PLEKHG5 (11743358_a_at) / Fold change /veh PLEKHG5 (11743358_a_at) / RFU ZSCAN30 (11745921_a_at) / Fold change /veh ZSCAN30 (11745921_a_at) / RFU CMKLR1 (11741424_a_at) / Fold change /veh CMKLR1 (11741424_a_at) / RFU LOC101060620 /// MAPK8IP1 (11723275_at) / Fold change /veh LOC101060620 /// MAPK8IP1 (11723275_at) / RFU SPTSSB (11747773_x_at) / Fold change /veh SPTSSB (11747773_x_at) / RFU PRSS12 (11739890_at) / Fold change /veh PRSS12 (11739890_at) / RFU BIN1 (11741810_x_at) / Fold change /veh BIN1 (11741810_x_at) / RFU WNT11 (11732464_a_at) / Fold change /veh WNT11 (11732464_a_at) / RFU C10orf10 (11716521_a_at) / Fold change /veh C10orf10 (11716521_a_at) / RFU C5orf56 (11738089_at) / Fold change /veh C5orf56 (11738089_at) / RFU CYB561 (11721691_x_at) / Fold change /veh CYB561 (11721691_x_at) / RFU ANKRD19P (11752326_a_at) / Fold change /veh ANKRD19P (11752326_a_at) / RFU OR2T12 /// OR2T33 /// OR2T8 (11738714_s_at) / Fold change /veh OR2T12 /// OR2T33 /// OR2T8 (11738714_s_at) / RFU VCAN (11748164_a_at) / Fold change /veh VCAN (11748164_a_at) / RFU JSRP1 (11732532_at) / Fold change /veh JSRP1 (11732532_at) / RFU KRTAP10-11 (11738290_x_at) / Fold change /veh KRTAP10-11 (11738290_x_at) / RFU MYO3A (11730013_a_at) / Fold change /veh MYO3A (11730013_a_at) / RFU EBF3 (11725865_a_at) / Fold change /veh EBF3 (11725865_a_at) / RFU CAMK2N1 (11719241_x_at) / Fold change /veh CAMK2N1 (11719241_x_at) / RFU C5orf56 (11738088_a_at) / Fold change /veh C5orf56 (11738088_a_at) / RFU OLFML3 (11715873_a_at) / Fold change /veh OLFML3 (11715873_a_at) / RFU LOC100653217 /// NTM (11731650_a_at) / Fold change /veh LOC100653217 /// NTM (11731650_a_at) / RFU MAPK11 (11762145_a_at) / Fold change /veh MAPK11 (11762145_a_at) / RFU FIZ1 (11724087_x_at) / Fold change /veh FIZ1 (11724087_x_at) / RFU OASL (11726364_x_at) / Fold change /veh OASL (11726364_x_at) / RFU SOX15 (11748057_x_at) / Fold change /veh SOX15 (11748057_x_at) / RFU CD79A (11719716_a_at) / Fold change /veh CD79A (11719716_a_at) / RFU HIST1H1D (11736915_at) / Fold change /veh HIST1H1D (11736915_at) / RFU CASKIN2 (11723855_a_at) / Fold change /veh CASKIN2 (11723855_a_at) / RFU LOC730098 (11760151_x_at) / Fold change /veh LOC730098 (11760151_x_at) / RFU OR4N2 (11742367_at) / Fold change /veh OR4N2 (11742367_at) / RFU PRRT2 (11749266_a_at) / Fold change /veh PRRT2 (11749266_a_at) / RFU SNX32 (11753110_a_at) / Fold change /veh SNX32 (11753110_a_at) / RFU CDHR5 (11726645_a_at) / Fold change /veh CDHR5 (11726645_a_at) / RFU RCAN1 (11760418_a_at) / Fold change /veh RCAN1 (11760418_a_at) / RFU FAM167A (11723789_a_at) / Fold change /veh FAM167A (11723789_a_at) / RFU FAM26E (11764081_at) / Fold change /veh FAM26E (11764081_at) / RFU ISYNA1 (11749810_s_at) / Fold change /veh ISYNA1 (11749810_s_at) / RFU ACY1 (11761880_at) / Fold change /veh ACY1 (11761880_at) / RFU 11764098_at / Fold change /veh 11764098_at / RFU SAMD14 (11745864_x_at) / Fold change /veh SAMD14 (11745864_x_at) / RFU NPB (11741838_a_at) / Fold change /veh NPB (11741838_a_at) / RFU TMPRSS6 (11731388_a_at) / Fold change /veh TMPRSS6 (11731388_a_at) / RFU KRTAP10-2 (11738614_at) / Fold change /veh KRTAP10-2 (11738614_at) / RFU ARHGAP8 /// PRR5-ARHGAP8 (11727945_x_at) / Fold change /veh ARHGAP8 /// PRR5-ARHGAP8 (11727945_x_at) / RFU KRTAP5-7 /// NADSYN1 (11734609_at) / Fold change /veh KRTAP5-7 /// NADSYN1 (11734609_at) / RFU RASL12 (11751679_a_at) / Fold change /veh RASL12 (11751679_a_at) / RFU CDKN2B (11736163_a_at) / Fold change /veh CDKN2B (11736163_a_at) / RFU PRF1 (11729649_at) / Fold change /veh PRF1 (11729649_at) / RFU, ZNF638 /// ZNF638-IT1 / Fold change vs veh, ZNF638 /// ZNF638-IT1 / RFU, PANK3 / Fold change vs veh, PANK3 / RFU, SH3YL1 / Fold change vs veh, SH3YL1 / RFU, ZEB2 / Fold change vs veh, ZEB2 / RFU, NRIP1 / Fold change vs veh, NRIP1 / RFU, PTTG1IP / Fold change vs veh, PTTG1IP / RFU, CAPN2 / Fold change vs veh, CAPN2 / RFU, MED14 / Fold change vs veh, MED14 / RFU, SNORA58 / Fold change vs veh, SNORA58 / RFU, C1orf63 / Fold change vs veh, C1orf63 / RFU, LRRFIP1 / Fold change vs veh, LRRFIP1 / RFU, NDUFAF7 / Fold change vs veh, NDUFAF7 / RFU, SLC12A2 / Fold change vs veh, SLC12A2 / RFU, IBTK / Fold change vs veh, IBTK / RFU, ESF1 / Fold change vs veh, ESF1 / Fold change vs veh, TMEM50B / RFU, TAOK1 / Fold change vs veh, TAOK1 / RFU, ACBD3 / Fold change vs veh, ACBD3 / RFU, TMA16 / Fold change vs veh, TMA16 / RFU, RWDD3 / Fold change vs veh, RWDD3 / RFU, BCAT1 / Fold change vs veh, BCAT1 / RFU, EDEM3 / Fold change vs veh, EDEM3 / RFU, TMEM33 / Fold change vs veh, TMEM33 / RFU, WDR75 / Fold change vs veh, WDR75 / RFU, AHCTF1 / Fold change vs veh, AHCTF1 / RFU, TFRC / Fold change vs veh, TFRC / RFU, ZDHHC17 / Fold change vs veh, ZDHHC17 / RFU, NOM1 / Fold change vs veh, NOM1 / RFU, ARL8B / Fold change vs veh, ARL8B / RFU, ZBTB11 / Fold change vs veh, ZBTB11 / RFU, TAMM41 / Fold change vs veh, TAMM41 / RFU, KIAA1704 /// LOC100996395 / Fold change vs veh, KIAA1704 /// LOC100996395 / RFU, ING1 / Fold change vs veh, ING1 / RFU, TRMT61B / Fold change vs veh, TRMT61B / RFU, FUBP3 / Fold change vs veh, FUBP3 / RFU, TP53 / Fold change vs veh, TP53 / RFU, TNKS2 / Fold change vs veh, TNKS2 / RFU, ZFP14 / Fold change vs veh, ZFP14 / RFU, ACTR2 / Fold change vs veh, ACTR2 / RFU, PPP3R1 / Fold change vs veh, PPP3R1 / RFU, PIK3R1 / Fold change vs veh, PIK3R1 / RFU, HNRNPA1 / Fold change vs veh, HNRNPA1 / RFU, RNF170 / Fold change vs veh, RNF170 / RFU, ZNF28 / Fold change vs veh, ZNF28 / RFU, RNGTT / Fold change vs veh, RNGTT / RFU, OGT / Fold change vs veh, OGT / RFU, BRD1 / Fold change vs veh, BRD1 / RFU, MARS / Fold change vs veh, MARS / RFU, ZNF655 / Fold change vs veh, ZNF655 / RFU, FAHD1 / Fold change vs veh, FAHD1 / RFU, BDP1 / Fold change vs veh, BDP1 / RFU, LRRCC1 / Fold change vs veh, LRRCC1 / RFU, ARID1A / Fold change vs veh, ARID1A / RFU, ZNF146 / Fold change vs veh, ZNF146 / RFU, ZNF330 / Fold change vs veh, ZNF330 / RFU, GPN3 / Fold change vs veh, GPN3 / RFU, C9orf123 / Fold change vs veh, C9orf123 / RFU, N4BP2L2 / Fold change vs veh, N4BP2L2 / RFU, ARFIP1 / Fold change vs veh, ARFIP1 / RFU, FAM179B / Fold change vs veh, FAM179B / RFU, BCL10 / Fold change vs veh, BCL10 / RFU, UHRF1BP1L / Fold change vs veh, UHRF1BP1L / RFU, BET1 / Fold change vs veh, BET1 / RFU, CNOT2 / Fold change vs veh, CNOT2 / RFU, ZNF268 / Fold change vs veh, ZNF268 / Fold change vs veh, ZNF507 / RFU, DGCR2 / Fold change vs veh, DGCR2 / RFU, WDSUB1 / Fold change vs veh, WDSUB1 / Fold change vs veh, HSP90B1 /// MIR3652 / RFU, ADSS / Fold change vs veh, ADSS / RFU, GK / Fold change vs veh, GK / RFU, ZNF148 / Fold change vs veh, ZNF148 / RFU, TAF9 / Fold change vs veh, TAF9 / RFU, SLC1A5 / Fold change vs veh, SLC1A5 / RFU, SLMO2 / Fold change vs veh, SLMO2 / RFU, ABCC4 / Fold change vs veh, ABCC4 / RFU, LOC101060439 /// RAP1B / Fold change vs veh, LOC101060439 /// RAP1B / RFU, RFX7 / Fold change vs veh, RFX7 / RFU, GTPBP10 / Fold change vs veh, GTPBP10 / RFU, CNEP1R1 / Fold change vs veh, CNEP1R1 / RFU, BIVM-ERCC5 /// ERCC5 / Fold change vs veh, BIVM-ERCC5 /// ERCC5 / RFU, ILF3 / Fold change vs veh, ILF3 / RFU 11762660_at / Fold change /veh 11762660_at / RFU VCAN (11757783_s_at) / Fold change /veh VCAN (11757783_s_at) / RFU DDX43 (11728927_at) / Fold change /veh DDX43 (11728927_at) / RFU KRT8 (11758188_x_at) / Fold change /veh KRT8 (11758188_x_at) / RFU NKD1 (11759106_at) / Fold change /veh NKD1 (11759106_at) / RFU SRD5A1 (11742802_a_at) / Fold change /veh SRD5A1 (11742802_a_at) / RFU TPSAB1 /// TPSB2 (11721975_s_at) / Fold change /veh TPSAB1 /// TPSB2 (11721975_s_at) / RFU GSTM3 (11746129_a_at) / Fold change /veh GSTM3 (11746129_a_at) / RFU IL23R (11737362_x_at) / Fold change /veh IL23R (11737362_x_at) / RFU TMEM51 (11727254_a_at) / Fold change /veh TMEM51 (11727254_a_at) / RFU PIWIL2 (11732686_x_at) / Fold change /veh PIWIL2 (11732686_x_at) / RFU ORM1 (11744905_x_at) / Fold change /veh ORM1 (11744905_x_at) / RFU CCDC152 (11743942_at) / Fold change /veh CCDC152 (11743942_at) / RFU ECM1 (11717891_a_at) / Fold change /veh ECM1 (11717891_a_at) / RFU IL23R (11748794_a_at) / Fold change /veh IL23R (11748794_a_at) / RFU TNFAIP8L3 (11732012_x_at) / Fold change /veh TNFAIP8L3 (11732012_x_at) / RFU MBOAT4 (11741988_at) / Fold change /veh MBOAT4 (11741988_at) / RFU 11764193_at / Fold change /veh 11764193_at / RFU TMEM53 (11763286_at) / Fold change /veh TMEM53 (11763286_at) / RFU MAGEB2 (11727129_at) / Fold change /veh MAGEB2 (11727129_at) / RFU TMEM200A (11744735_a_at) / Fold change /veh TMEM200A (11744735_a_at) / RFU CCDC152 (11751479_a_at) / Fold change /veh CCDC152 (11751479_a_at) / RFU FAM211A (11726209_a_at) / Fold change /veh FAM211A (11726209_a_at) / RFU RGS16 (11746705_a_at) / Fold change /veh RGS16 (11746705_a_at) / RFU VCAN (11755009_s_at) / Fold change /veh VCAN (11755009_s_at) / RFU RHOB (11743442_s_at) / Fold change /veh RHOB (11743442_s_at) / RFU RGS16 (11720943_a_at) / Fold change /veh RGS16 (11720943_a_at) / RFU RGS16 (11720944_at) / Fold change /veh RGS16 (11720944_at) / RFU, VPS4B / Fold change vs veh, VPS4B / RFU, CREB1 / Fold change vs veh, CREB1 / RFU, DNAJC13 / Fold change vs veh, DNAJC13 / RFU, GNAQ / Fold change vs veh, GNAQ / RFU, CDK5R1 / Fold change vs veh, CDK5R1 / RFU, ZRANB3 / Fold change vs veh, ZRANB3 / RFU, CUL4A / Fold change vs veh, CUL4A / RFU, CCNY / Fold change vs veh, CCNY / RFU, UFL1 / Fold change vs veh, UFL1 / RFU, COG3 / Fold change vs veh, COG3 / RFU, DIAPH2 / Fold change vs veh, DIAPH2 / RFU, SKA2 / Fold change vs veh, SKA2 / RFU, AFF3 / Fold change vs veh, AFF3 / RFU, LMF1 / Fold change vs veh, LMF1 / RFU, IPO11 / Fold change vs veh, IPO11 / RFU, DFFB / Fold change vs veh, DFFB / RFU, FOXP1 / Fold change vs veh, FOXP1 / RFU, CARD8 / Fold change vs veh, CARD8 / RFU, STRN3 / Fold change vs veh, STRN3 / RFU, ADK / Fold change vs veh, ADK / RFU, RASSF2 / Fold change vs veh, RASSF2 / RFU, WIPF1 / Fold change vs veh, WIPF1 / RFU, LARP1B / Fold change vs veh, LARP1B / RFU, RASA1 / Fold change vs veh, RASA1 / RFU, RB1 / Fold change vs veh, RB1 / RFU, PPFIA1 / Fold change vs veh, PPFIA1 / RFU, MAT2A / Fold change vs veh, MAT2A / RFU, CCT5 / Fold change vs veh, CCT5 / RFU, WDR92 / Fold change vs veh, WDR92 / RFU, CUX1 / Fold change vs veh, CUX1 / RFU, TTC7A / Fold change vs veh, TTC7A / RFU, TMEM135 / Fold change vs veh, TMEM135 / RFU, DEPTOR / Fold change vs veh, DEPTOR / RFU, CPM / Fold change vs veh, CPM / RFU, DNAJB6 / Fold change vs veh, DNAJB6 / RFU, CACNA2D3 / Fold change vs veh, CACNA2D3 / RFU, DTX4 / Fold change vs veh, DTX4 / RFU, TFCP2 / Fold change vs veh, TFCP2 / RFU, GMCL1 /// GMCL1P1 / Fold change vs veh, GMCL1 /// GMCL1P1 / RFU, AEBP2 / Fold change vs veh, AEBP2 / RFU, SNHG1 /// SNORD22 /// SNORD25 /// SNORD26 /// SNORD27 /// SNORD28 /// SNORD29 /// SNORD31 / Fold change vs veh, SNHG1 /// SNORD22 /// SNORD25 /// SNORD26 /// SNORD27 /// SNORD28 /// SNORD29 /// SNORD31 / Fold change (Aza/veh), C12orf56 (ProbeSet 11735607_a_at) / Fold change (ACY-1035/veh), C12orf56 (ProbeSet 11735607_a_at) / Fold change (Aza/veh), FGFR1OP (ProbeSet 11751329_s_at) / Fold change (ACY-1035/veh), FGFR1OP (ProbeSet 11751329_s_at) / Fold change (Aza/veh), VPS36 (ProbeSet 11739960_a_at) / Fold change (ACY-1035/veh), VPS36 (ProbeSet 11739960_a_at) / RFU SYPL1 (11715823_x_at) / Fold change /veh SYPL1 (11715823_x_at) / RFU IGFBP7 (11715501_s_at) / Fold change /veh IGFBP7 (11715501_s_at) / RFU REEP3 (11722064_at) / Fold change /veh REEP3 (11722064_at) / RFU IGLL1 (11728026_x_at) / Fold change /veh IGLL1 (11728026_x_at): dose or concentration left out as unconfirmed
Conditions: MV-4-11 cells, 48 hours

Nc1ccc(-c2cccs2)cc1NC(=O)c1ccc2c(c1)cc(C1CC1)n2CCN1CCOCC1 [ACY-1035]
Fold change /veh PODN (11730768_x_at): 1.05
